38 compounds from patent US20240109881A1, “Heteroaryl Compounds as Ligand Directed Degraders of IRAK4” (Bristol-Myers Squibb Company, priority 2022, published 2024) can be followed below.

This assay deals with T1, IRAK4 (Homo sapiens, UniProt Q9NWZ3).
T1 construct: endogenous in cells; host or cells: THP-1 cells
T1 sequence (Q9NWZ3 1-460): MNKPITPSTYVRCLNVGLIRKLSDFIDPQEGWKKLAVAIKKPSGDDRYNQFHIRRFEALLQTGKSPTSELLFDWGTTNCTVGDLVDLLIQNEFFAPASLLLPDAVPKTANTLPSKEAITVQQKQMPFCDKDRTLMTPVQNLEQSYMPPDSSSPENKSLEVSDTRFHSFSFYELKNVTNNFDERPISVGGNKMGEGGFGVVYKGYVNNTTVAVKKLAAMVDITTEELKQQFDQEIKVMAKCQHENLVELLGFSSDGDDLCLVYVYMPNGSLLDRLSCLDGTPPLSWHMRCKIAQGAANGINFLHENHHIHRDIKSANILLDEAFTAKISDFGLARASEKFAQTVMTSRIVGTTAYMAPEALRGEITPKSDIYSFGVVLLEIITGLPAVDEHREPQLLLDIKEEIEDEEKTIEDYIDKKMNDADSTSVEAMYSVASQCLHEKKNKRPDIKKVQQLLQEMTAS
The assay is described as follows: LVL THP1 HTRF (THP1 Homogeneous Time Resolved Fluorescence). The format is cell-based. Particulars: THP1 cells, 18 h incubation with compound; for DC50: read-out: LVL THP1 HTRF EC50. The method, boiled down:
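THP-1 cells in phenol red-free RPMI with 10% FBS were dosed with compound (20 nL in DMSO) for 18 h at 37° C. After 2 h lysis, IRAK4 was detected with anti-IRAK4-d2/anti-IRAK4-K HTRF antibodies for 18 h at room temperature and read at 665/615 nm; a parallel CTG plate was run.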
In general terms: Time-resolved FRET reads energy transfer from a long-lived donor to a nearby acceptor.

Regarding `C[C@H](C#N)Nc1cc(-n2ncc3cc(C#N)cnc32)ncc1-c1cc(C2CCC(CCN3CCN(c4ccc(C5CCC(=O)NC5=O)cc4)CC3)CC2)no1` (stereo partly shown) [P-211], the “LVL THP1 HTRF YMIN” value worked out at 1.1%.

Turning to `C[C@H](C#N)Nc1cc(-n2ncc3cc(C#N)cnc32)ncc1-c1cc([C@H]2CC[C@H](CCN3CCN(c4ccc(C5CCC(=O)NC5=O)cc4)CC3)CC2)no1` (stereo partly shown) [P-211], the DC50 turned out to be 3 nM. As for `CC(C#N)Nc1cc(-n2ncc3cc(C#N)cnc32)ncc1-n1cc(C23CCC(CCN4CCN(c5ccc(C6CCC(=O)NC6=O)cc5)CC4)(CC2)CC3)nn1` (stereo not shown) [P-212], the “LVL THP1 HTRF YMIN” value stood at 1.5% and the DC50 was determined as 3 nM. For `CC(C#N)Nc1cc(-n2ncc3cc(C#N)cnc32)ncc1-n1cc(C2CCC(C(C)CN3CCN(c4ccc(C5CCC(=O)NC5=O)cc4)CC3)CC2)nn1` (stereo not shown) [P-213], in that order: 1.7% and 2 nM.

Regarding `C[C@H](C#N)Nc1cc(-n2ncc3cc(C#N)c(N)nc32)ncc1-n1cc(C2CCC(CCN3CCC(c4ccc(C5CCC(=O)NC5=O)cc4)CC3)CC2)nn1` (stereo partly shown) [P-214], the “LVL THP1 HTRF YMIN” value is reported as less than 0.5%. For the compound `C[C@H](C#N)Nc1cc(-n2ncc3cc(C#N)c(N)nc32)ncc1-n1cc([C@H]2CC[C@H](CCN3CCC(c4ccc(C5CCC(=O)NC5=O)cc4)CC3)CC2)nn1` (stereo partly shown) [P-214], the DC50 is less than 1 nM. `C[C@H](C#N)Nc1cc(-n2ncc3cc(C#N)c(N)nc32)ncc1-n1cc(C2CCC(CCN3C[C@H](C)N(c4ccc(C5CCC(=O)NC5=O)cc4)C[C@H]3C)CC2)nn1` (stereo partly shown) [P-215]: the “LVL THP1 HTRF YMIN” value is 0.7% and the DC50 was less than 1 nM. Consider `C[C@H](C#N)Nc1cc(-n2ncc3cc(C#N)c(N)nc32)ncc1-n1cc(C2CCC(CCN3CCN(c4ccc(C5CCC(=O)NC5=O)cc4)[C@H](C)C3)CC2)nn1` (stereo partly shown) [P-216], for which the “LVL THP1 HTRF YMIN” value was 1. % and the DC50 was 1 nM.

`CS(=O)(=O)N1CCC(Nc2cc(-n3ncc4cc(C#N)c(N)nc43)ncc2-n2cc(C3CCC(CCN4CCN(c5ccc(C6CCC(=O)NC6=O)cc5)CC4)CC3)nn2)CC1` (stereo not shown) [P-217]: the “LVL THP1 HTRF YMIN” value is on record as 1.6%. With `CS(=O)(=O)N1CCC(Nc2cc(-n3ncc4cc(C#N)c(N)nc43)ncc2-n2cc([C@H]3CC[C@H](CCN4CCN(c5ccc(C6CCC(=O)NC6=O)cc5)CC4)CC3)nn2)CC1` (stereo partly shown) [P-217], the DC50 worked out at 9 nM.

For the compound `C[C@H](C#N)Nc1cc(-n2ncc3cncnc32)ncc1-n1cc(C2CCC(CCN3CCN(c4ccc(C5CCC(=O)NC5=O)cc4)CC3)CC2)nn1` (stereo partly shown) [P-218], the “LVL THP1 HTRF YMIN” value is recorded as 4.3%.

As to `C[C@H](C#N)Nc1cc(-n2ncc3cncnc32)ncc1-n1cc([C@H]2CC[C@H](CCN3CCN(c4ccc(C5CCC(=O)NC5=O)cc4)CC3)CC2)nn1` (stereo partly shown) [P-218], the DC50 worked out at 6 nM.

Consider `C[C@H](C#N)Nc1cc(-n2ncc3cc(C#N)c(N)nc32)ncc1-n1cc(C2CCC(CCN3CCN(c4ccc(C5CCC(=O)NC5=O)cc4)[C@@H](C)C3)CC2)nn1` (stereo partly shown) [P-219], for which the “LVL THP1 HTRF YMIN” value is listed as 1.8% and the DC50 came out at 6 nM.

Consider `C[C@H](C#N)Nc1cc(-n2ncc3cc(C#N)c(N)nc32)ncc1-n1cc(C2CCC(CCN3[C@H](C)CN(c4ccc(C5CCC(=O)NC5=O)cc4)C[C@H]3C)CC2)nn1` (stereo partly shown) [P-220], for which the “LVL THP1 HTRF YMIN” value is 4.3% and the DC50 came out at 6 nM. Regarding `C[C@H](C#N)Nc1cc(-n2ncc3cc(C#N)cnc32)ncc1-n1cc(C2CCC(CCN3[C@H](C)CN(c4ccc(C5CCC(=O)NC5=O)cc4)C[C@H]3C)CC2)nn1` (stereo partly shown) [P-221], the “LVL THP1 HTRF YMIN” value turned out to be 1.4% and the DC50 was 5 nM. Regarding `C[C@H](C#N)Nc1cc(-n2ncc3cc(C#N)c(N)nc32)ncc1-n1cc(C2CCC(CCN3CCN(c4ccc([C@@]5(C)CCC(=O)NC5=O)cc4)CC3)CC2)nn1` (stereo partly shown) [P-222], the “LVL THP1 HTRF YMIN” value was found to be 2.1%. With `C[C@H](C#N)Nc1cc(-n2ncc3cc(C#N)c(N)nc32)ncc1-n1cc([C@H]2CC[C@H](CCN3CCN(c4ccc([C@@]5(C)CCC(=O)NC5=O)cc4)CC3)CC2)nn1` [P-222], the DC50 came to 7 nM. As for `C[C@H](C#N)Nc1cc(-n2ncc3cc(C#N)c(N)nc32)ncc1-n1cc(C2CCC(CCN3[C@@H](C)CN(c4ccc(C5CCC(=O)NC5=O)cc4)C[C@@H]3C)CC2)nn1` (stereo partly shown) [P-223], the “LVL THP1 HTRF YMIN” value is 2.1% and the DC50 is less than 1 nM. As for `C[C@H](C#N)Nc1cc(-n2ncc3cc(C#N)cnc32)ncc1-c1ncn(C2CCC(CCN3CCN(c4ccc(C5CCC(=O)NC5=O)cc4)CC3)CC2)n1` (stereo partly shown) [P-224], the “LVL THP1 HTRF YMIN” value came out at 15.9%. In the case of `C[C@H](C#N)Nc1cc(-n2ncc3cc(C#N)cnc32)ncc1-c1ncn([C@H]2CC[C@H](CCN3CCN(c4ccc(C5CCC(=O)NC5=O)cc4)CC3)CC2)n1` (stereo partly shown) [P-224], the DC50 came to 60 nM. On to `C[C@H](C#N)Nc1cc(-n2ncc3cncnc32)ncc1-n1cc(C2CCC(CCN3CCN(c4ccc([C@@]5(C)CCC(=O)NC5=O)cc4)CC3)CC2)nn1` (stereo partly shown) [P-225], for which the “LVL THP1 HTRF YMIN” value came out at 3.5%.

Take `C[C@H](C#N)Nc1cc(-n2ncc3cncnc32)ncc1-n1cc([C@H]2CC[C@H](CCN3CCN(c4ccc([C@@]5(C)CCC(=O)NC5=O)cc4)CC3)CC2)nn1` [P-225]: the DC50 came out at 133 nM. Consider `C[C@H](C#N)Nc1cc(-n2ncc3cc(C#N)cnc32)ncc1-n1cc([C@H]2CC[C@](O)(CCN3CCN(c4ccc(C5CCC(=O)NC5=O)cc4)CC3)CC2)nn1` (stereo partly drawn) [P-226, 1-(4-(((R)-1-cyanoethyl)amino)-5-(4-(4-(2-(4-(4-(2,6-dioxopiperidin-3-yl)phenyl)piperazin-1-yl)ethyl)-4-hydroxycyclohexyl)-1H-1,2,3-triazol-1-yl)pyridin-2-yl)-1H-pyrazolo[3,4-b]pyridine-5-carbonitrile], for which the “LVL THP1 HTRF YMIN” value was found to be 2.1% and the DC50 is 5 nM. For `C[C@H](C#N)Nc1cc(-n2ncc3cc(C#N)cnc32)ncc1-n1cc(C2CCC(O)(CCN3CCN(c4ccc(C5CCC(=O)NC5=O)cc4)CC3)CC2)nn1` (stereo partly shown) [P-227], in that order: 3.0% and 2 nM. As for `C[C@H](C#N)Nc1cc(-n2ncc3cnc(N)nc32)ncc1-n1cc(C2CCC(CCN3CCN(c4ccc([C@@]5(C)CCC(=O)NC5=O)cc4)CC3)CC2)nn1` (stereo partly shown) [P-228], the “LVL THP1 HTRF YMIN” value came to 3.6%.

On to `C[C@H](C#N)Nc1cc(-n2ncc3cnc(N)nc32)ncc1-n1cc([C@H]2CC[C@H](CCN3CCN(c4ccc([C@@]5(C)CCC(=O)NC5=O)cc4)CC3)CC2)nn1` [P-228], for which the DC50 stood at 9 nM. `C[C@H](C#N)Nc1cc(-c2ccc3cc(C#N)cnn23)ncc1-n1cc(C2CCC(CCN3CCN(c4ccc([C@@]5(C)CCC(=O)NC5=O)cc4)CC3)CC2)nn1` (stereo partly shown) [P-230]: the “LVL THP1 HTRF YMIN” value is recorded as 2.8%.

As to `C[C@H](C#N)Nc1cc(-c2ccc3cc(C#N)cnn23)ncc1-n1cc([C@H]2CC[C@H](CCN3CCN(c4ccc([C@@]5(C)CCC(=O)NC5=O)cc4)CC3)CC2)nn1` [P-230], the DC50 was determined as 7 nM. On to `C[C@H](C#N)Nc1cc(-n2ncc3cnc(N)nc32)ncc1-n1cc(C2CCC(CCN3CCN(c4ccc(C5CCC(=O)NC5=O)cc4)CC3)CC2)nn1` (stereo partly shown) [P-231], for which the “LVL THP1 HTRF YMIN” value amounted to 1.37%. As for `C[C@H](C#N)Nc1cc(-n2ncc3cnc(N)nc32)ncc1-n1cc([C@H]2CC[C@H](CCN3CCN(c4ccc(C5CCC(=O)NC5=O)cc4)CC3)CC2)nn1` (stereo partly shown) [P-231], the DC50 was 1 nM. As for `C[C@H]1CN(c2ccc([C@@]3(C)CCC(=O)NC3=O)cc2)C[C@H](C)N1CCC1CCC(c2cn(-c3cnc(-n4ncc5cc(C#N)cnc54)cc3NC3(C#N)CC3)nn2)CC1` (stereo partly shown) [P-232], the “LVL THP1 HTRF YMIN” value is 7.1% and the DC50 turned out to be 65 nM.

Take `C[C@H](C#N)Nc1cc(-n2ncc3cc(C#N)cnc32)ncc1-n1cc(C2CCC(CCN3CCC(c4ccc([C@@]5(C)CCC(=O)NC5=O)cc4)CC3)CC2)nn1` (stereo partly shown) [P-233]: the “LVL THP1 HTRF YMIN” value is recorded as 2.8%. With `C[C@H](C#N)Nc1cc(-n2ncc3cc(C#N)cnc32)ncc1-n1cc([C@H]2CC[C@H](CCN3CCC(c4ccc([C@@]5(C)CCC(=O)NC5=O)cc4)CC3)CC2)nn1` [P-233], the DC50 stood at 8 nM. Consider `C[C@]1(c2ccc(N3CCN(CCC4CCC(c5cn(-c6cnc(-n7ncc8cc(C#N)cnc87)cc6NC6(C#N)CC6)nn5)CC4)CC3)cc2)CCC(=O)NC1=O` (stereo partly shown) [P-234], for which the “LVL THP1 HTRF YMIN” value amounted to 3.1%. Turning to `C[C@]1(c2ccc(N3CCN(CC[C@H]4CC[C@H](c5cn(-c6cnc(-n7ncc8cc(C#N)cnc87)cc6NC6(C#N)CC6)nn5)CC4)CC3)cc2)CCC(=O)NC1=O` [P-234], the DC50 stood at 13 nM. With `C[C@H](C#N)Nc1cc(-n2ncc3cc(C#N)cnc32)ncc1-n1cc(C2CCC(CCN3C[C@@H](C)N(c4ccc([C@@]5(C)CCC(=O)NC5=O)cc4)C[C@@H]3C)CC2)nn1` (stereo partly shown) [P-236], the “LVL THP1 HTRF YMIN” value is 23.3% and the DC50 was determined as 269 nM. The matching figures for `C[C@H](C#N)Nc1cc(-n2ncc3cc(C#N)cnc32)ncc1-n1cc(C2CCC(CCN3[C@@H](C)CN(c4ccc([C@@]5(C)CCC(=O)NC5=O)cc4)C[C@@H]3C)CC2)nn1` (stereo partly shown) [P-238]: 1.1% and 25 nM. For `C[C@H](C#N)Nc1cc(-n2ncc3cc(C#N)cnc32)ncc1-n1cc(C2CCC(CCN3CCN(c4ccc([C@@]5(C)CCC(=O)NC5=O)cc4)[C@H](C)C3)CC2)nn1` (stereo partly shown) [P-239], in that order: 8.6% and 165 nM.
